Measurements reported in patent US9309242B2, “Substituted pyrido[2,3-b]pyrazines as FGFR kinase inhibitors” (priority 2011, dated 2016).

How the values were obtained:
[1] = system: Ba/F3-KDR-transfected cells; experiment: Ba/F3-KDR (plus IL3) cellular proliferation assay, counterscreen with 10 ng/ml murine IL3; assay type: cell-based; conditions: plus IL3 (10 ng/ml murine IL3, counterscreen); read-out: BAF3-KDR (PLUS IL3) pIC50 (converted)
Method in brief: (§1)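 Ba/F3-KDR cells (20000 per well) in phenol red-free RPMI-1640 with 10% FBS were exposed to compound for 24 hours at 37° C, 5% CO2. Alamar Blue (resazurin) was then added for 4 hours, and fluorescence was read at ex. 540 nm/em. 590 nm.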

[2] = biological target: T1, Ba/F3-KDR-transfected cells (Homo sapiens, UniProt P35968); experiment: Ba/F3-KDR (minus IL3) cellular proliferation assay, Alamar Blue; assay type: cell-based
T1 construct: BAF3-KDR (MIN IL3) pIC50; other: minus IL3
T1 sequence (P35968 whole entry, change not shown): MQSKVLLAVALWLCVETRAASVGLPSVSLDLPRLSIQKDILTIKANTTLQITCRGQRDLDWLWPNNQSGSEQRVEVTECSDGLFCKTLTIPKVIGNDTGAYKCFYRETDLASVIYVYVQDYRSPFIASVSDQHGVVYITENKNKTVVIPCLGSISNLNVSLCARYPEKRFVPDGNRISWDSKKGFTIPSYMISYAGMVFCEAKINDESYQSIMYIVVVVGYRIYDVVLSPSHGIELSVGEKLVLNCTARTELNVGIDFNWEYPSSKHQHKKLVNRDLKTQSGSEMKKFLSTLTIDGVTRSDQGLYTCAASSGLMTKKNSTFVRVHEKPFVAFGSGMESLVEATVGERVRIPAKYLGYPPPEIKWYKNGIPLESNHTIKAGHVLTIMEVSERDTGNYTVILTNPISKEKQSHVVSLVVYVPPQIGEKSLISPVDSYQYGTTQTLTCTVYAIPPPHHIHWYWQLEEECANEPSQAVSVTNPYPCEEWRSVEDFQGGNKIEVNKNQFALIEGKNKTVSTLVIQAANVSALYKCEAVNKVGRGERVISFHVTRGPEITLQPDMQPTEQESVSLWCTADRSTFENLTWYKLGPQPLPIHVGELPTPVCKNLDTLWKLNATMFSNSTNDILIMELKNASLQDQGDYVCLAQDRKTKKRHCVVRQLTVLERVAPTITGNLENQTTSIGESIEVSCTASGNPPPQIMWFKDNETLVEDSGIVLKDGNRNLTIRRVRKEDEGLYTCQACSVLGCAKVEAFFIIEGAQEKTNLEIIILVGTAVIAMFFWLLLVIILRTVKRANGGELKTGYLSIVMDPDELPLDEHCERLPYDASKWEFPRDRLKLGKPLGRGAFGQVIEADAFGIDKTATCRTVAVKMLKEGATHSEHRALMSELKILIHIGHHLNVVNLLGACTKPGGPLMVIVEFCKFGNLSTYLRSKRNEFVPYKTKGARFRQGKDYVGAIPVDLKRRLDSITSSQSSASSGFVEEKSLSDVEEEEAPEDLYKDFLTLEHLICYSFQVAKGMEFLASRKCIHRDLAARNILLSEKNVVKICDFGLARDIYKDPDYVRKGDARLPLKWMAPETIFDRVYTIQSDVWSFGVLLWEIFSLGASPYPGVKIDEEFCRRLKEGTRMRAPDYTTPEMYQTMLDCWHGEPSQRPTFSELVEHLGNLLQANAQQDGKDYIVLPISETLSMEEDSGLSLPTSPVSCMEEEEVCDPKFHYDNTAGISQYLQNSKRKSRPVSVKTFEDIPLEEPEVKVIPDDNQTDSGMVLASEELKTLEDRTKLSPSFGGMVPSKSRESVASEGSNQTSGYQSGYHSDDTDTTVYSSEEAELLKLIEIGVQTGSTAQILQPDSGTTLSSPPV
Method in brief: as §1

SMILES | IC50 [1] | BAF3-KDR (MIN IL3) pIC50 [2]
COc1ccc(Cl)c(N(CC2CCC(=O)N2)c2ccc3ncc(-c4cnn(C)c4)nc3n2)c1Cl (single isomer, unassigned) [Compound 90] | > 10 µM | <5
COc1cc(OC)c(F)c(N(CCN(C2COC2)C2COC2)c2ccc3ncc(-c4cnn(C)c4)nc3n2)c1F (single isomer, unassigned) [Compound 163] | > 10 µM | 6.21
COc1cc(OC)c(F)c(N(CC2CCOC2)c2ccc3ncc(-c4cnn(C)c4)nc3n2)c1 (single isomer, unassigned) [Compound 170] | > 10 µM | 5.56
COc1cc(OC)c(F)c(N(CC(C)(C)O)c2ccc3ncc(-c4cnn(CC(C)(C)O)c4)nc3n2)c1 (single isomer, unassigned) [Compound 208] | > 10 µM | 5.57
COc1cc(/N=c2\ccc3ncc(-c4cnn(C)c4)nc3n2CC2CCC(=O)N2CCO)c(F)c(OC)c1 (single isomer, unassigned) [Compound 219] | > 10 µM | 6.38
COc1ccc(Cl)c(N(CC2CCC(=O)N2)c2ccc3ncc(-c4cnn(C)c4)nc3n2)c1Cl (stereo not drawn) [Compound 93] | > 10 µM | <5
COc1cc(O)c(F)c(N(Cc2ncc[nH]2)c2ccc3ncc(-c4cnn(C)c4)nc3n2)c1 [Compound 96] | > 10 µM | 5.89
COc1cc(OC)cc(N(Cc2ncc[nH]2)c2ccc3ncc(-c4cn[nH]c4)nc3n2)c1 [Compound 141] | > 10 µM | 5.87
COc1cc(OC)cc(N(CC2COC2)c2ccc3ncc(-c4cnn(C)c4)nc3n2)c1 [Compound 142] | > 10 µM | <5
COc1cc(/N=c2\ccc3ncc(-c4cnn(C)c4)nc3n2CC2COC2)c(F)c(OC)c1 [Compound 143] | > 10 µM | <5
COc1cc(OC)c(F)c(N(CC2COC2)c2ccc3ncc(-c4cnn(C)c4)nc3n2)c1 [Compound 144] | > 10 µM | 5.19
COc1cc(OC)c(F)c(N(Cc2nccn2CCO)c2ccc3ncc(-c4cnn(C)c4)nc3n2)c1 [Compound 145] | > 10 µM | 5.63
COc1cc(OC)cc(N(CCN2CCOCC2)c2ccc3ncc(-c4cnn(C)c4)nc3n2)c1 [Compound 146] | > 10 µM | 5.28
COc1cc(/N=c2\ccc3ncc(-c4cnn(C)c4)nc3n2CCN2CCOCC2)cc(OC)c1 [Compound 147] | > 10 µM | 6.17
COc1cc(/N=c2\ccc3ncc(-c4cnn(C)c4)nc3n2CCN2CCOCC2)c(F)c(OC)c1 [Compound 148] | > 10 µM | 6.26
COc1cc(OC)c(F)c(N(CCN2CCOCC2)c2ccc3ncc(-c4cnn(C)c4)nc3n2)c1 [Compound 149] | > 10 µM | 5.89
COc1cc(OC)cc(N(CCN2CCCC2=O)c2ccc3ncc(-c4cnn(C)c4)nc3n2)c1 [Compound 151] | > 10 µM | <5
COc1cc(OC)cc(N(Cc2ncc[nH]2)c2ccc3ncc(-c4ccccc4)nc3n2)c1 [Compound 152] | > 10 µM | 5.56
COc1cc(/N=c2\ccc3ncc(-c4cnn(C)c4)nc3n2Cc2cn[nH]c2)c(F)c(OC)c1 [Compound 155] | > 10 µM | 6.88
COc1cc(/N=c2\ccc3ncc(-c4cnn(C)c4)nc3n2CCN2CCCC2=O)c(F)c(OC)c1 [Compound 156] | > 10 µM | 5.52
COc1cc(OC)c(F)c(N(CCN2CCCC2=O)c2ccc3ncc(-c4cnn(C)c4)nc3n2)c1 [Compound 157] | > 10 µM | 5.30

SMILES | IC50 [1] | BAF3-KDR (MIN IL3) pIC50 [2]
COc1cc(/N=c2\ccc3ncc(-c4cnn(C)c4)nc3n2CC2CCC(=O)N2C)c(F)c(OC)c1 (stereo not drawn) [Compound 158] | > 10 µM | 6.16
COc1cc(OC)c(F)c(N(CC2CCC(=O)N2C)c2ccc3ncc(-c4cnn(C)c4)nc3n2)c1 (stereo not drawn) [Compound 159] | > 10 µM | 5.17
COc1cc(/N=c2\ccc3ncc(-c4cnn(C)c4)nc3n2CC2CCCOC2)cc(OC)c1 (stereo not drawn) [Compound 165] | > 10 µM | 6.30
COc1cc(OC)cc(N(CC2CCCOC2)c2ccc3ncc(-c4cnn(C)c4)nc3n2)c1 (stereo not drawn) [Compound 166] | > 10 µM | 5.07
COc1cc(/N=c2\ccc3ncc(-c4cnn(C)c4)nc3n2CCN)c(F)c(OC)c1 [Compound 167] | > 10 µM | 5.63
COc1cc(OC)c(F)c(N(CCN)c2ccc3ncc(-c4cnn(C)c4)nc3n2)c1 [Compound 168] | > 10 µM | 5.57
COc1cc(OC)cc(N(Cc2nc(OC)cc(OC)n2)c2ccc3ncc(-c4cnn(C)c4)nc3n2)c1 [Compound 174] | > 10 µM | <5
Cn1cc(-c2cnc3ccc(N(Cc4ncc[nH]4)c4c(F)c(F)cc(F)c4F)nc3n2)cn1 [Compound 175] | > 10 µM | <5
COc1cc(OC)c(F)c(N(Cc2ncco2)c2ccc3ncc(-c4cnn(C)c4)nc3n2)c1 [Compound 177] | > 10 µM | 5.67
COc1cc(OC)c(F)c(N(Cc2c(C)noc2C)c2ccc3ncc(-c4cnn(C)c4)nc3n2)c1 [Compound 178] | > 10 µM | <5
COc1cc(/N=c2\ccc3ncc(-c4cnn(C)c4)nc3n2Cc2c(C)noc2C)c(F)c(OC)c1 [Compound 179] | > 3.02 µM | <5.52
COc1cc(OC)c(F)c(N(Cc2cc(C)on2)c2ccc3ncc(-c4cnn(C)c4)nc3n2)c1 [Compound 180] | > 10 µM | 5.58
COc1cc(/N=c2\ccc3ncc(-c4cnn(C)c4)nc3n2Cc2cc(C)on2)c(F)c(OC)c1 [Compound 181] | > 10 µM | 5.97
COc1cc(OC)cc(N(Cc2ncc[nH]2)c2ccc3ncc(-c4cccnc4)nc3n2)c1 [Compound 182] | > 10 µM | 5.48
COc1cc(/N=c2\ccc3ncc(-c4cnn(C)c4)nc3n2Cc2cc(C)no2)c(F)c(OC)c1 [Compound 184] | > 10 µM | 6.71
COc1cc(OC)c(F)c(N(Cc2cc(C)no2)c2ccc3ncc(-c4cnn(C)c4)nc3n2)c1 [Compound 185] | > 10 µM | 5.51
COc1cc(OC)c(F)c(N(Cc2ncc[nH]2)c2ccc3ncc(-c4cn[nH]c4)nc3n2)c1 [Compound 190] | > 10 µM | 6.46
COc1cc(OC)c(F)c(N(Cc2ncc[nH]2)c2ccc3ncc(-c4cccnc4)nc3n2)c1 [Compound 190a] | > 10 µM | 5.82
COc1cc(OC)c(F)c(N(Cc2cnn(C)c2)c2ccc3ncc(-c4cnn(C)c4)nc3n2)c1 [Compound 195] | > 10 µM | 5.79
COc1cc(/N=c2\ccc3ncc(-c4cnn(C)c4)nc3n2Cc2cnn(C)c2)c(F)c(OC)c1 [Compound 196] | > 10 µM | 7.41
COc1cc(OC)cc(N(Cc2nn[nH]n2)c2ccc3ncc(-c4cnn(C)c4)nc3n2)c1 [Compound 197] | > 10 µM | <5
